Data published in patent publication US20020147353A1, “Novel flavonoids” (Vereniging christelijk wetenschappelijk anderwijs, priority 1999, published 2002).

Tests used:
[1] = system: iron/ascorbate induced lipid peroxidation; assay: Lipid peroxidation (LPO) model, heat-treated hepatic microsomes, TBA reactive substances; assay type: biochemical; conditions: rat hepatic microsomes, reaction started with 10 uM FeSO4; mean ± s.e.m., n = 3-5
Protocol: Experiment 1: Lipid Peroxidation Model
Preparation of hepatic microsomes.
Male Wistar rats (200-220 g) obtained from Harlan Nederland B.V. (Horst, The Netherlands) were sacrificed by decapitation. Livers were removed and homogenized in ice-cold phosphate buffer (50 mM+0.1 mM EDTA, pH=7.4, 1:2 w/v). The homogenate was centrifuged at 10 000× g (20 min at 4° C.). Subsequently, the supernatant was centrifuged at 100 000× g for 60 min (4° C.). The pellet was resuspended in phosphate buffer and centrifuged again at 100 000× g (60 min, 4° C.). Finally the microsomal pellet was resuspended in phosphate buffer (2 g liver/ml) and 1 mL aliquots were stored at −80° C.
Microsomes were thawed and resuspended in ice-cold Tris-HCl buffer (50 mM, pH=7.4 at 37° C.) and washed by centrifugation. The pellet was resuspended in 2 mL 50 mM Tris-HCl buffer and heated to 100° C. for at least 2 min to remove all enzymatic factors just before resuspending and diluting it in ice-cold Tris buffer to 1.5 mg/mL.
Stock solutions of the flavonoids were freshly prepared in nitrogen-purged DMSO and nanopure water (1:1) just before use. The reaction was started by adding 10 uM freshly prepared FeSO4 in nitrogen-purged nanopure water. LPO was assayed by measuring thiobarbituric acid (TBA) reactive substances. At t=0, 5, 10, 15, 30, 45 and 60 min an 0.3 mL aliquot of the incubation was mixed with 2 mL of an ice-cold TBA-trichloroacetic acid-HCl-butylhydroxytoluene (BHT) solution to stop the reaction. After heating and centrifugation the absorbance at 535 vs 600 nm was determined. The TBA-trichloroacetic acid-HCl-butylhydroxytoluene solution was prepared by dissolving 41.6 mg TBA/10 ml trichloroacetic acid (16.8% w/v in 0.125 N HCl). To 10 ml TBA-trichloroacetic acid-HCl 1 ml BHT (1.5 mg/ml ethanol) was added.
The IC50 was determined by measuring the % LPO inhibition at several concentrations and interpolating the 50% inhibition point.

[2] = TEAC model (Trolox equivalent antioxidant capacity); conditions: concentration of Trolox equivalent to 1 mM test compound; mean ± S.D., n = 3-5
Protocol: A solution of 2,2′-azino-bis(3-ethylbenzthiazoline-6-sulfonic acid) (1.23 mg/mL) and azobisamidinepropane (3.96 mg/mL) in 50 mM phosphate buffer (pH=7.4) was heated at 70° C. for 20 min. The amount of ABTS radicals was measured by determination of the absorbance at 734 nm.
Stock solutions of the flavonoids were freshly prepared in nitrogen-purged DMSO and nanopure water (1:1) just before use. A calibration curve of Trolox ((+/−)-6-hydroxy-2,5,7,8-tetramethyl-chroman-2-carboxylic acid) was made in a concentration range from 0 to 20 μM. A mixture of 50 μL test compound and 950 μL ABTS^−+ solution was incubated at 37° C. for 5 min. Subsequently the absorbance at 734 nm was determined on a UV/VIS Spectrophotometer.
The antioxidant-induced decrease in absorbance is directly related to the antioxidant capacity of the compound (solution) being tested.
The Trolox equivalent antioxidant capacity (TEAC) is defined as the concentration (mM) of Trolox having an antioxidant capacity equivalent to 1 mM of the test compound.

[3] = system: isolated mouse left atrium; assay: Isolated mouse left atrium model: protection against doxorubicin-induced negative inotropy; conditions: 250 μM flavonoid with 35 μM doxorubicin, electrically paced mouse left atrium
Protocol: Experiment 3: Isolated Mouse Left Atrium Model
In order to determine the cardioprotective properties of the compounds in vitro, the protection against doxorubicin-induced negative inotropy was studied, using the isolated mouse left atrium model.
The example compounds were tested for their protective effect on the negative inotropic action of doxorubicin on the isolated mouse left atrium. The testing model has been described earlier (de Jong et al.Ress Comm Chem Pathol Pharmacol 68, 275-289 (1990). In short, left atria were isolated from male Balb/c mice (18-22 g) and stimulated with square wave pulses of 3 ms duration at a frequency of 4 Hz. Incubation with […] doxorubicin causes a decrease in inotropy of 50% (after 1 h). Atria were incubated with 35 μM doxorubicin and 250 μM flavonoid. Inotropy was measured and expressed as % basal contractile force relative to t=0.

[4] = system: doxorubicin-induced cardiotoxicity; assay: Protection against doxorubicin-induced cardiotoxicity in vivo (ST-interval in ECG, telemetry); conditions: mice
A2780 cells = assay: Interference with antitumor activity of doxorubicin, MTT assay; assay type: cell-based; conditions: A2780, 100 μM, 96 h
Protocol: (§1) Experiment 5: Interference with the Antitumor Activity of Doxorubicin Because of the possible use of these compounds as adjuvants in the chemotherapy, it was checked whether the compounds influenced the negative effect of doxorubicin on cell growth. […] This observation further underlined the use of these compounds as adjuvant therapy in the protection of the side effects of cytostatics. On day 0 cultured OVCAR-3, MCF-7 and A2780 cells were plated at a density of 5000 cells/well for OCAR-3 and MCF-7 and 3000 cells/well for A2780 cells. […] After incubation of 96 h at 37° C. (day 5), growth inhibitory effects were evaluated using the standard MTT assay.

MCF-7 cells = assay: as above; assay type: cell-based; conditions: MCF-7, 100 μM, 96 h
Protocol: as §1

OVCAR-3 cells = assay: as above; assay type: cell-based; conditions: OVCAR-3, 100 μM, 96 h
Protocol: as §1

[5] = system: alloxan-induced diabetic rats; assay: Antidiabetic action in alloxan-induced diabetic rats; assay type: in vivo; conditions: 68 mg/kg i.p. for two weeks
Protocol: In order to study the antidiabetic action of compound 9i (see FIG. 1 and the section “syntheses” above), the compound was studied in alloxan-induced diabetic rats. […] These diabetic rats were subsequently treated with compound 9i for two weeks (at 68 mg/kg, i.p.).

[6] = system: guinea pigs exposed to ozone; assay: Ozone exposure model for COPD, pulmonary neutrophil influx; assay type: in vivo; conditions: 1 ppm ozone 12 h then 12 h air, 68 mg/kg i.p.
Source text: Chronic Obstructive Pulmonary Disease is associated with oxidative stress. There are strong indications that antioxidant therapy may be beneficial in COPD ([…] et al., Am. J. Resp. Crit. Care Med. 156, 341-358 (1997)). Not only the number of exacerbations decreases, but also the progressive decrease in lung function becomes less severe under treatment with an antioxidant like N-acetylcysteine. An animal model for COPD is ozone exposure. In contrast to asthma, COPD is characterized by a neutrophil influx. […] We studied the protective effect of compound 9i in this ozone exposure model. […] To this end compound 9[…].) was given (24 h, 12 h before ozone exposure and daily during the exposure to ozone/air) to guinea pigs that were exposed to 1 ppm ozone for 12 h which was followed by 12 h of air.

IC50 [1]: 2800 ± 900 nM
Compound: O=c1c(O[C@@H]2O[C@H](CO)[C@@H](O)[C@H](O)[C@H]2O)c(-c2ccc(O)c(O)c2)oc2ccccc12 [Compound 9i, 3′,4′-dihydroxy-3-glucoseflavone]
TEAC [2]: 4.9 ± 0.3 mM
Atrium protection (250 μM) [3]: 46%
potency as protector against doxorubicin-induced cardiotoxicity relative to monoHER ([4]; 68 mg/kg i.p.): at least 5 times
protection against doxorubicin-induced cardiotoxicity in vivo (in words) ([4]; 9i 68 mg/kg i.p., doxorubicin 4 mg/kg i.v. weekly, 6 weeks): significantly potent activity
9i 100 μM growth % (A2780 cells): 97.7%
9i 100 μM growth % (MCF-7 cells): 83.8%
9i 100 μM growth % (OVCAR-3 cells): 86.8%
glucose plasma level compared to controls [5]: decrease in glucose plasma level
pulmonary neutrophil influx [6]: could be prevented
